# Source: patent publication US20130315830A1, “PSMA as a BioMarker for Androgen Activity in Prostate Cancer” (Cornell University, priority 2012, published 2013)
# Test system: LAPC-4, expressing wild-type AR
smiles,measurement,value
"C[C@]12CCC(=O)C[C@@H]1CC[C@@H]1[C@@H]2CC[C@]2(C)[C@@H](O)CC[C@@H]12 [DHT, 5α-dihydrotestosterone]",PSMA expression,low level of PSMA
